Data reported in patent US10155726B2, “Substituted pyridines and uses thereof” (PELOTON THERAPEUTICS, INC., priority 2015, dated 2018).
Entries after “also recorded” stand apart in the source; their conditions may differ.

How the values were obtained:
[1] = molecular target: T1, HIF-2α HIS TAG-PASB Domain (Homo sapiens, UniProt Q99814); test: HIF-2α Scintillation Proximity Assay (SPA); assay type: binding; details: displacement of tritiated probe from HIF-2α PAS-B domain
T1 construct: 100 nM HIF-2α HIS TAG-PASB Domain
Experimental: The total assay volume was about 100 μL in the following configuration: 2 μL compound in 100% DMSO, 88 μL buffer with protein and probe and 10 μL of SPA beads. […] The percent inhibition was determined and IC50 values were calculated using the Dotmatics system based on the following equation: % inhibition=[(high control−sample)/(high control−low control)]×100.

[2] = tested on: 786-O-Hif-Luc cells; test: Luciferase Assay; assay type: cell-based; details: about 24 hours
Experimental: 786-O-Hif-Luc single clone cells were obtained by infecting 786-O cells (ATCC® CRL-1932™) with commercial lentivirus that delivers a luciferase gene driven by multiple HIF responsive elements (Cignal Lenti HIF Reporter (luc): CLS-007L, Qiagen) at Multiplicity of Infection (MOI) of 25 for 24 hours. […] A pool of infected cells were then selected against 2 μg/mL of puromycin (P8833, Sigma) for 10 days followed by limited dilution to select single clones. […] For the luciferase assay, about 7500 786-O-Hif-Luc cells in 90 μL growth medium were seeded into each well of a 96-well white opaque plate (08-771-26, Fisher scientific) a day before treatment with the layout presented in FIG. 4. […] Each concentration was tested in triplicate. After about 24 hours, luciferase activity was determined using ONE-Glo Luciferase Assay Reagent (E6110, Promega) following the manufacturer's recommended procedure. EC50 were calculated using Dotmatics software.

[3] = tested on: 786-O cells; test: VEGF ELISA Assay; assay type: cell-based; details: Homo sapiens, 786-0; VEGF concentration in culture medium of 786-O cells
Experimental: About 7500 786-O cells in 180 μL of growth medium were seeded into each well of a 96-well, white, clear bottom plate (07-200-566, Fisher Scientific) on day one in the layout presented in FIG. 3. […] Each concentration was plated in duplicate. About 20 hours later, medium was removed by suction and each well was supplied with 180 μL of growth medium. About 20 μl freshly-made 10× compound stocks were added to each well. […] The EC50 was calculated by GraphPad Prism using the dose-response-inhibition (four parameter) equation. The cell-seeded plate was then subjected to CellTiter-Glo luminescence cell viability assay (Promega) by adding 50 μL of Celltiter Glo reagent into each well and shaking the plate for 8 minutes at 550 rpm (Thermomixer R, Eppendorf) then the luminescence signal immediately read in a plate reader (3 second delay, 0.5 second/well integration time, Synergy 2 multi Detection Microplate reader).

[4] = tested on: HIF-2α target genes VEGF, PAI-1 and CCND1; test: PK/PD study: expression of HIF-2α regulated genes in 786-O tumor xenografts by qRT-PCR; assay type: in vivo, SCID/Biege mice; details: 10 mg/kg oral gavage, six doses at 12 hour interval, 12 hours post last dose
Experimental: (§1) When the xenografts reached about 750 mm^3 in size, the tumor bearing mice were randomly grouped into four groups (n=3). […] All animals were sacrificed at 12 hours post last dose. Tumors and plasma were collected from each animal. Total RNA was extracted from the tumors, and the expression levels of putative HIF-2α regulated genes were determined by qRT-PCR. […] The level of human VEGFA was assessed using an ELISA assay.

[5] = tested on: human VEGFA; test: PK/PD study: human VEGFA in plasma of 786-O xenograft bearing mice by ELISA; assay type: in vivo, SCID/Biege mice; details: 10 mg/kg oral gavage, six doses at 12 hour interval, 12 hours post last dose
Experimental: as §1

T1 sequence (Q99814 239-348): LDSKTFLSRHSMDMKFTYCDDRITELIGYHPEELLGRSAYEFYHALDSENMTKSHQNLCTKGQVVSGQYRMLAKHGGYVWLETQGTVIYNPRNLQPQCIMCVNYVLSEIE

SMILES	IC50 [1] [nM]	EC50 [2] [nM]	EC50 [3] [nM]	mRNA levels of HIF-2α target genes (VEGF, PAI-1, CCND1) in 786-O xenografts [4]	level of human VEGFA in plasma of 786-O xenograft bearing mice [5]
N#Cc1cc(F)cc(-c2cnc(C(F)(F)F)c3c2C[C@@H](F)[C@H]3O)c1 (racemic) [Compound 7, 3-fluoro-5-((6R,7S)-6-fluoro-7-hydroxy-1-(trifluoromethyl)-6,7-dihydro-5H-cyclopenta[c]pyridin-4-yl)benzonitrile]	250 to 1000	250 to 1000	–	–	–
O[C@H]1c2c(C(F)(F)F)ncc(OC3CC(F)(F)C3)c2C[C@H]1F [Compound 1, (6R,7S)-4-(3,3-difluorocyclobutoxy)-6-fluoro-1-(trifluoromethyl)-6,7-dihydro-5H-cyclopenta[c]pyridin-7-ol]	< 50	< 50	< 50	–	–
O[C@@H]1CCc2c(OC3CC(F)(F)C3)cnc(C(F)(F)F)c21 [Compound 2, (R)-4-(3,3-difluorocyclobutoxy)-1-(trifluoromethyl)-6,7-dihydro-5H-cyclopenta[c]pyridin-7-ol]	< 50	250 to 1000	–	–	–
N#Cc1cc(F)cc(Oc2cnc(C(F)(F)F)c3c2C[C@@H](F)[C@H]3O)c1 [Compound 3, 3-fluoro-5-(((6R,7S)-6-fluoro-7-hydroxy-1-(trifluoromethyl)-6,7-dihydro-5H-cyclopenta[c]pyridin-4-yl)oxy)benzonitrile]	< 50	< 50	50 to 249	–	–
CS(=O)(=O)c1ncc(Oc2cc(F)cc(C#N)c2)c2c1[C@H](O)[C@H](F)C2 [Compound 4, 3-fluoro-5-(((6R,7S)-6-fluoro-7-hydroxy-1-(methylsulfonyl)-6,7-dihydro-5H-cyclopenta[c]pyridin-4-yl)oxy)benzonitrile]	50 to 249	250 to 1000	–	–	–
O=S(=O)(c1cnc(Oc2cc(F)cc(F)c2)c2c1CCC2)C(F)F [Compound 6, 4-(difluoromethylsulfonyl)-1-(3,5-difluorophenoxy)-6,7-dihydro-5H-cyclopenta[c]pyridine]	> 1000	> 1000	–	–	–
N#Cc1cc(F)cc(Oc2cnc(C(F)(F)F)c3c2CCC3O)c1 (stereo not shown) [Compound 8]	< 50	250 to 1000	–	–	–
O[C@H]1c2c(C(F)(F)F)ncc(OCC(F)F)c2C[C@H]1F [Compound 9]	< 50	50 to 249	250 to 1000	–	–
O[C@@H]1CCc2c(OCC(F)F)cnc(C(F)(F)F)c21 [Compound 10]	> 1000	> 1000	–	–	–
CS(=O)(=O)c1ncc(OC2CC(F)(F)C2)c2c1[C@H](O)[C@@H](F)C2 [Compound 11]	> 1000	–	–	–	–
CS(=O)(=O)c1ncc(OC2CC(F)(F)C2)c2c1[C@H](O)[C@H](F)C2 [Compound 12]	250 to 1000	> 1000	–	–	–
O[C@H]1c2c(C(F)(F)F)ncc(Oc3cncc(F)c3)c2C[C@H]1F [Compound 13]	50 to 249	50 to 249	–	–	–
O[C@H]1c2c(C(F)(F)F)ncc(O[C@H]3C[C@H](F)C3)c2C[C@H]1F [Compound 14]	< 50	< 50	< 50	–	–
N#Cc1cc(F)cc(Oc2ncc(Br)c3c2C(F)C(F)(F)C3F)c1 (stereo not shown) [Compound 16]	> 1000	–	–	–	–
N#Cc1cc(F)cc(Oc2ncc(Br)c3c2[C@@H](F)C(F)(F)[C@H]3O)c1 [Compound 17]	50 to 249	> 1000	–	–	–
CS(=O)(=O)c1cnc(Oc2cc(F)cc(C#N)c2)c2c1[C@H](O)[C@H](F)[C@@H]2F [Compound 18]	> 1000	–	–	–	–
CS(=O)(=O)c1cnc(Oc2cc(F)cc(C#N)c2)c2c1[C@H](O)[C@H](F)C2 [Compound 19]	> 1000	–	–	–	–
CS(=O)(=O)c1cnc(Oc2cc(F)cc(C#N)c2)c2c1[C@H](O)C(F)(F)[C@@H]2F [Compound 20]	< 50	> 1000	–	–	–
CS(=O)(=O)c1cnc(Oc2cc(F)cc(C#N)c2)c2c1[C@H](O)C(F)(F)[C@H]2F [Compound 21]	250 to 1000	> 1000	–	–	–

SMILES	IC50 [1] [nM]	EC50 [2] [nM]	EC50 [3] [nM]	mRNA levels of HIF-2α target genes (VEGF, PAI-1, CCND1) in 786-O xenografts [4]	level of human VEGFA in plasma of 786-O xenograft bearing mice [5]
N#Cc1cc(F)cc(Oc2cnc(C(F)(F)F)c3c2[C@@H](F)[C@@H](F)[C@H]3O)c1 [Compound 22, 3-(((5R,6S,7S)-5,6-difluoro-7-hydroxy-1-(trifluoromethyl)-6,7-dihydro-5H-cyclopenta[c]pyridin-4-yl)oxy)-5-fluorobenzonitrile]	< 50	< 50	< 50	decreased; also recorded: significant reduction	decreased; also recorded: significant reduction
O[C@H]1c2c(C(F)(F)F)ncc(OCCCF)c2C[C@H]1F [Compound 23]	< 50	50 to 249	–	–	–
O[C@H]1c2c(C(F)(F)F)ncc(OCCCF)c2C[C@@H]1F [Compound 24]	50 to 249	–	–	–	–
CC(C)Oc1cnc(C(F)(F)F)c2c1C[C@@H](F)[C@H]2O [Compound 25]	250 to 1000	–	–	–	–
CC(C)Oc1cnc(C(F)(F)F)c2c1C[C@H](F)[C@H]2O [Compound 26]	> 1000	–	–	–	–
O[C@H]1c2c(C(F)(F)F)ncc(OCC(F)F)c2C[C@@H]1F [Compound 27]	50 to 249	50 to 249	–	–	–
CS(=O)(=O)c1cnc(Oc2cc(F)cc(C#N)c2)c2c1C(O)CC2 (stereo not shown) [Compound 28]	> 1000	–	–	–	–
O[C@H]1c2c(C(F)F)ncc(OC3CC(F)(F)C3)c2C[C@H]1F [Compound 30]	> 1000	–	–	–	–
O[C@H]1c2c(C(F)F)ncc(OC3CC(F)(F)C3)c2C[C@@H]1F [Compound 31]	> 1000	–	–	–	–
N#Cc1cc(F)cc(Oc2ncc(C(F)(F)F)c3c2CCC3O)c1 (stereo not shown) [Compound 32]	> 1000	–	–	–	–
N#Cc1cc(F)cc(Oc2ncc(C(F)(F)F)c3c2C[C@@H](F)[C@H]3O)c1 [Compound 33, 3-fluoro-5-(((5S,6R)-6-fluoro-5-hydroxy-4-(trifluoromethyl)-6,7-dihydro-5H-cyclopenta[c]pyridin-1-yl)oxy)benzonitrile]	> 1000	–	–	–	–
N#Cc1cncc(Oc2cnc(C(F)(F)F)c3c2[C@@H](F)[C@@H](F)[C@H]3O)c1 [Compound 34, 5-(((5R,6S,7S)-5,6-difluoro-7-hydroxy-1-(trifluoromethyl)-6,7-dihydro-5H-cyclopenta[c]pyridin-4-yl)oxy)nicotinonitrile]	< 50	50 to 249	50 to 249	decreased; also recorded: significant reduction	decreased; also recorded: significant reduction
O[C@H]1c2c(C(F)(F)F)ncc(-c3ccccc3)c2C[C@H]1F [Compound 35]	> 1000	–	–	–	–
O[C@H]1c2c(C(F)(F)F)ncc(-c3cc(F)cc(F)c3)c2C[C@H]1F [Compound 36]	250 to 1000	–	–	–	–
O[C@H]1c2c(C(F)(F)F)ncc(OC3CC(F)(F)C3)c2[C@@H](F)[C@H]1F [Compound 37, (5R,6S,7S)-4-(3,3-difluorocyclobutoxy)-5,6-difluoro-1-(trifluoromethyl)-6,7-dihydro-5H-cyclopenta[c]pyridin-7-ol]	< 50	< 50	< 50	decreased; also recorded: significant reduction	decreased; also recorded: significant reduction
O/N=C1/c2c(C(F)(F)F)ncc(OCC(F)F)c2CC1F (stereo not shown) [Compound 38]	> 1000	–	–	–	–
OC1CCc2c(OCC(F)F)cnc(C3(C(F)(F)F)CC3)c21 (stereo not shown) [Compound 39]	> 1000	–	–	–	–
O[C@H]1c2c(C(F)(F)F)ncc(Oc3cncc(F)c3)c2[C@@H](F)[C@H]1F [Compound 40]	< 50	< 50	–	–	–
N#Cc1cc(F)cc(Oc2nnc(C(F)(F)F)c3c2CCC3O)c1 (stereo not shown) [Compound 42, 3-fluoro-5-((5-hydroxy-4-(trifluoromethyl)-6,7-dihydro-5H-cyclopenta[d]pyridazin-1-yl)oxy)benzonitrile]	> 1000	> 1000	–	–	–
